Holding throughout (type): biochemical
One test has as its target T1, GLP (Homo sapiens, UniProt Q9H9B1).
T1 sequence (Q9H9B1 1-1298): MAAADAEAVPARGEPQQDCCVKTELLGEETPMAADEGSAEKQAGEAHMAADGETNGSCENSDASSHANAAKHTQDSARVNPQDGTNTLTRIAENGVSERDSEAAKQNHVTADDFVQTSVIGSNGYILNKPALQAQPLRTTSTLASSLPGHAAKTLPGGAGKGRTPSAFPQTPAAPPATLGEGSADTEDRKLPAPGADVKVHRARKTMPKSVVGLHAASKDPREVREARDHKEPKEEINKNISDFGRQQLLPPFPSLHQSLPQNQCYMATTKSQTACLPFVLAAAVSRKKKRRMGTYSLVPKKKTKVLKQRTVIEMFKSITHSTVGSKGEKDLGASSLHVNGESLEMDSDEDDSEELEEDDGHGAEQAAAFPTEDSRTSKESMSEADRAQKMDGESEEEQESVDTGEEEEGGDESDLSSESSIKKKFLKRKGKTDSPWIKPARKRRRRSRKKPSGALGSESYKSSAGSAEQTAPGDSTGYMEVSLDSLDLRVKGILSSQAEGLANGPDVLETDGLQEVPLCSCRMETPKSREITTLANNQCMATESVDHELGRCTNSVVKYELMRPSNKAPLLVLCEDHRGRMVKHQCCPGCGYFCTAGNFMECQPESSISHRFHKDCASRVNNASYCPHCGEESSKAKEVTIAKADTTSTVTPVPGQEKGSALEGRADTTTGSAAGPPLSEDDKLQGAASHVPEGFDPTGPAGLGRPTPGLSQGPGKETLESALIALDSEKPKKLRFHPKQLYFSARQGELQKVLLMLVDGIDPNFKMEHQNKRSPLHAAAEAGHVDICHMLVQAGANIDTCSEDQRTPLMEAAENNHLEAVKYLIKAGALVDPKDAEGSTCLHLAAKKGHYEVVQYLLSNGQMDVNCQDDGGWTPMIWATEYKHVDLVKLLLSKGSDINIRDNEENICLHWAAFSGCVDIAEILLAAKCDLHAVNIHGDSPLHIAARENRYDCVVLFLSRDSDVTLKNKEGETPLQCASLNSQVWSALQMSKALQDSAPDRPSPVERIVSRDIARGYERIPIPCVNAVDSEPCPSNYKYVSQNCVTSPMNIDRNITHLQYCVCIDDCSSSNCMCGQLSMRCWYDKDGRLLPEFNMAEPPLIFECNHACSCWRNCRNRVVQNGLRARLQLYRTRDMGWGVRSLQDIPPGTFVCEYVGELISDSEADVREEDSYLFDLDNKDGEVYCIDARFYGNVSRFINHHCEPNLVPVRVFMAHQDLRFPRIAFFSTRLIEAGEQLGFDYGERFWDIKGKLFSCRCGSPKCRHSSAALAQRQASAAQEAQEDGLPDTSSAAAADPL
The test can be described thus: human MTase selectivity panel.

Test [1] addresses T2, PRMT7 (protein arginine methyltransferase 7) (Homo sapiens, UniProt Q9NVM4).
T2 sequence (Q9NVM4 1-692): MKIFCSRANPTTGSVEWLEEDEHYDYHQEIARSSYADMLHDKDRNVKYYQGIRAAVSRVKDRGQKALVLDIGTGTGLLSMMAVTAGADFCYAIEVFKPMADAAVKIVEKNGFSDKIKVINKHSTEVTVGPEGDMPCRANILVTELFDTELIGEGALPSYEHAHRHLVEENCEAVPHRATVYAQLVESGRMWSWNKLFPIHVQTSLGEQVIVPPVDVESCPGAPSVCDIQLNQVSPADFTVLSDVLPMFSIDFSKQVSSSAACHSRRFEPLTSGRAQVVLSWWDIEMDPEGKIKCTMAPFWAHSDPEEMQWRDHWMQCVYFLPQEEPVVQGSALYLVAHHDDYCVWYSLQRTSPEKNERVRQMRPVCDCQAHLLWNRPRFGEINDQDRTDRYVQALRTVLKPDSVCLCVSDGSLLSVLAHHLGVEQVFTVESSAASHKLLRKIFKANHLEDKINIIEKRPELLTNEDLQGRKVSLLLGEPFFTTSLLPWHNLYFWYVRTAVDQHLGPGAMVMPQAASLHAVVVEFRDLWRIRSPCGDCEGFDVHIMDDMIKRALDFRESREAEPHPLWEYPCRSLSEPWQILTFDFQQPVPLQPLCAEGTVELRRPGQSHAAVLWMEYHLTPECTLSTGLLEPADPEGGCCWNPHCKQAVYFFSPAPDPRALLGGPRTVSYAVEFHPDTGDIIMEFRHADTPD
The experiment in a line: human MTase selectivity panel and IC50.

In another test the target is SARS-CoV-2 nsp14 MTase (Severe acute respiratory syndrome coronavirus 2, UniProt P0DTD1). The experiment in a line: biochemical.

The source of these data is paper doi:10.1101/2023.10.03.560722, “Drug Discovery in Low Data Regimes: Leveraging a Computational Pipeline for the Discovery of Novel SARS-CoV-2 Nsp14-MTase Inhibitors” (bioRxiv, 2024).

Structures are written as SMILES. Read-outs that look alike come from different tables or passages of the source.

As to `Nc1ncnc2c1ncn2[C@@H]1O[C@H](CSCc2ccc(Cl)cc2)[C@@H](O)[C@H]1O` [NSC620333], the activity at 10 µM at GLP (average ± SD, read-out: Activity (%) at 10 µM Average) stood at 100 ± 5%; on GLP (read-out: Activity (%) at 10 µM Replicate 1), 95%; at GLP (read-out: Activity (%) at 10 µM Replicate 2), 105%; at GLP (read-out: Activity (%) at 10 µM Replicate 3), 101%; in test [1] (PRMT7, average ± SD, read-out: Activity (%) at 10 µM Average), 32 ± 3%; in test [1] (PRMT7, read-out: Activity (%) at 10 µM Replicate 1), 35%. Moreover, the activity at 10 µM in test [1] (PRMT7, read-out: Activity (%) at 10 µM Replicate 2) is 29%; in test [1] (PRMT7, read-out: Activity (%) at 10 µM Replicate 3), 32%. In addition, the IC50 – broadly, the midpoint of a concentration-inhibition curve – in test [1] (PRMT7) is 7 ± 1.5 µM; against SARS-CoV-2 nsp14 MTase (IC50 (µM), nsp14 MTase activity, high-throughput screening follow-up) it was 5 µM; on SARS-CoV-2 nsp14 MTase (IC50, at Km of both SAM and RNA substrates, mean ± SD, n = 3), 5.3 ± 1 µM. In addition, the “Hill Slope” value in test [1] (PRMT7 IC50 curve) is -1.9. Moreover, the “mechanism of action with respect to RNA substrate” value on SARS-CoV-2 nsp14 MTase (IC50 at varying RNA (31 to 500 nM), fixed SAM 1.25 µM) is listed as “noncompetitive”. For the same compound, the “mechanism of action with respect to SAM” value at SARS-CoV-2 nsp14 MTase (IC50 at varying SAM (0.15 to 2.5 µM), fixed RNA 0.25 µM) is on record as “SAM competitive”. Moreover, on SARS-CoV-2 nsp14 MTase (custom-ordered, highly purified (>99%) sample), the “inhibition of nsp14, batch retesting” value is “more pronounced inhibition”. For the same compound, the inhibition (commonly the percentage by which the read-out fell short of the control) at 100 µM on SARS-CoV-2 nsp14 MTase (read-out: nsp14 Inhibition % (100µM) Exp 1) was found to be 100%; on SARS-CoV-2 nsp14 MTase (read-out: nsp14 Inhibition % (100µM) Exp 2), 99%.
